Columns and labels:
[1] = system: rabbit serum obtained by immunizing a rabbit with the SARS-CoV strain Frankfurt 1; assay type: binding; design: Binding of a rabbit serum to linear peptides / Binding of a rabbit serum to looped peptides / Rabbit serum linear peptides / Rabbit serum looped peptides / Binding of a rabbit serum to linear peptides of protein N of SARS-CoV Urbani (Rabbit serum linear peptides) / Binding of a rabbit serum to looped/cyclic peptides of protein N of SARS-CoV Urbani (Rabbit serum looped peptides): unit not given here
[2] = system: control sera (pooled serum of ten healthy LUMC hospital workers; commercial negative donor pooled serum from the Dutch bloodbank); assay type: binding, human; design: Binding of Control serum LUMC to linear peptides / Binding of Control serum Blood-bank to linear peptides / Binding of Control serum LUMC to looped peptides / Binding of Control Serum Blood-Bank to Looped peptides / Binding of Control serum LUMC to linear peptides of the protein M of SARS-CoV Urbani / Binding of Control serum Blood-bank to linear peptides of the protein M of SARS-CoV Urbani / Binding of Control serum LUMC to looped peptides of the protein M of SARS-CoV Urbani / Binding of Control Serum Blood-Bank to Looped peptides of the protein M of SARS-CoV Urbani: unit not given here
[3] = system: antibodies in sera from SARS patients (sera 1a, 1b, 2, 6, 37, 62, London, SARS-yellow, SARS-green); assay type: binding, human; design: Binding of serum 6 to linear peptides of protein X1 of SARS-CoV Urbani / Binding of serum 37 to linear peptides of protein X1 of SARS-CoV Urbani / Binding of serum 6 to looped/cyclic peptide (PEPSCAN-ELISA) / Binding of serum 37 to looped/cyclic peptide (PEPSCAN-ELISA) / Binding of serum 37 to looped/cyclic peptides of protein X1 of SARS-CoV Urbani / Binding of serum 6 to linear peptides of protein X2 / Binding of serum 37 to linear peptides of protein X2 / Binding of serum 37 to looped/cyclic peptides of protein X2 of SARS-CoV Urbani / Binding of serum 6 to linear peptides of protein M of SARS-CoV Urbani / Binding of serum 37 to linear peptides of protein M of SARS-CoV Urbani / Binding of serum 6 to looped/cyclic peptides of protein M of SARS-CoV Urbani / Binding of serum 37 to looped/cyclic peptides of protein M of SARS-CoV Urbani / Binding of serum 6 to linear peptides of protein X3 of SARS-CoV Urbani / Binding of serum 37 to linear peptides of protein X3 of SARS-CoV Urbani / Binding of serum 37 to looped/cyclic peptides of protein X3 of SARS-CoV Urbani / Binding of serum 6 to linear peptides of protein X4 of SARS-CoV Urbani / Binding of serum 37 to linear peptides of protein X4 of SARS-CoV Urbani / Binding of serum 37 to looped/cyclic peptides of protein X4 of SARS-CoV Urbani / Binding of serum 6 to linear peptides of protein X5 of SARS-CoV Urbani / Binding of serum 37 to linear peptides of protein X5 of SARS-CoV Urbani / Binding of serum 37 to looped/cyclic peptides of protein X5 of SARS-CoV Urbani / Binding of serum 6 to linear peptides of protein N of SARS-CoV Urbani / Binding of serum 37 to linear peptides of protein N of SARS-CoV Urbani / Binding of serum 6 to linear peptide (PEPSCAN-ELISA) / Binding of serum 1a to looped/cyclic peptides of protein N of SARS-CoV Urbani / Binding of serum 1b to looped/cyclic peptides of protein N of SARS-CoV Urbani / Binding of serum 2 to looped/cyclic peptides of protein N of SARS-CoV Urbani / Binding of serum 6 to looped/cyclic peptides of protein N of SARS-CoV Urbani / Binding of serum 37 to looped/cyclic peptides of protein N of SARS-CoV Urbani / Binding of serum 62 to looped/cyclic peptides of protein N of SARS-CoV Urbani / Binding of serum London to looped/cyclic peptides of protein N of SARS-CoV Urbani / Binding of serum SARS-green to looped/cyclic peptides of protein N of SARS-CoV Urbani: unit not given here

## FQFICNLLLLFVTIY
[1]
  Binding of a rabbit serum to linear peptides: 0.9
  Binding of a rabbit serum to looped peptides: 0.0
[2]
  Binding of Control Serum Blood-Bank to Looped peptides: 0.4
  Binding of Control serum Blood-bank to linear peptides: 0.5
  Binding of Control serum LUMC to linear peptides: 0.5
  Binding of Control serum LUMC to looped peptides: 0.3
[3]
  Binding of serum 1a to linear peptides of protein X1 of SARS-CoV Urbani: 0.6
  Binding of serum 1a to looped/cyclic peptide (PEPSCAN-ELISA): 0.2
  Binding of serum 1b to linear peptides of protein X1 of SARS-CoV Urbani: 0.5
  Binding of serum 1b to looped/cyclic peptide (PEPSCAN-ELISA): 0.0
  Binding of serum 2 to linear peptides of protein X1 of SARS-CoV Urbani: 0.5
  Binding of serum 2 to looped/cyclic peptide (PEPSCAN-ELISA): 0.0
  Binding of serum 6 to linear peptides of protein X1 of SARS-CoV Urbani: 0.3
  Binding of serum 6 to looped/cyclic peptide (PEPSCAN-ELISA): 0.2
  Binding of serum 37 to linear peptides of protein X1 of SARS-CoV Urbani: 0.5
  Binding of serum 37 to looped/cyclic peptide (PEPSCAN-ELISA): 0.0
  Binding of serum 62 to linear peptides of protein X1 of SARS-CoV Urbani: 0.5
  Binding of serum 62 to looped/cyclic peptide (PEPSCAN-ELISA): 0.2
  Binding of serum London to linear peptides of protein X1 of SARS-CoV Urbani: 0.2
  Binding of serum London to looped/cyclic peptide (PEPSCAN-ELISA): 0.1
  Binding of serum SARS-green to linear peptides of protein X1 of SARS-CoV Urbani: 0.1
  Binding of serum SARS-green to looped/cyclic peptide (PEPSCAN-ELISA): 0.4
  Binding of serum SARS-yellow to linear peptides of protein X1 of SARS-CoV Urbani: 0.5
  Binding of serum SARS-yellow to looped/cyclic peptide (PEPSCAN-ELISA): 0.0

## FQVTIAEILIIIMRT
[1]
  Rabbit serum linear peptides: 0.2
  Rabbit serum looped peptides: 0.3
[2]
  Binding of Control Serum Blood-Bank to Looped peptides of the protein X3 of SARS-CoV Urbani: 0.7
  Binding of Control serum Blood-bank to linear peptides of the protein X3 of SARS-CoV Urbani: 0.8
  Binding of Control serum LUMC to linear peptides of the protein X3 of SARS-CoV Urbani: 0.4
  Binding of Control serum LUMC to looped peptides of the protein X3 of SARS-CoV Urbani: 0.6
[3]
  Binding of serum 1a to linear peptides of protein X3 of SARS-CoV Urbani: 0.7
  Binding of serum 1a to looped/cyclic peptides of protein X3 of SARS-CoV Urbani: 0.5
  Binding of serum 1b to linear peptides of protein X3 of SARS-CoV Urbani: 0.3
  Binding of serum 1b to looped/cyclic peptides of protein X3 of SARS-CoV Urbani: 0.2
  Binding of serum 2 to linear peptides of protein X3 of SARS-CoV Urbani: 0.6
  Binding of serum 2 to looped/cyclic peptides of protein X3 of SARS-CoV Urbani: 0.5
  Binding of serum 6 to linear peptides of protein X3 of SARS-CoV Urbani: 0.6
  Binding of serum 6 to looped/cyclic peptides of protein X3 of SARS-CoV Urbani: 0.3
  Binding of serum 37 to linear peptides of protein X3 of SARS-CoV Urbani: 0.3
  Binding of serum 37 to looped/cyclic peptides of protein X3 of SARS-CoV Urbani: 0.6
  Binding of serum 62 to linear peptides of protein X3 of SARS-CoV Urbani: 0.5
  Binding of serum 62 to looped/cyclic peptides of protein X3 of SARS-CoV Urbani: 0.4
  Binding of serum London to linear peptides of protein X3 of SARS-CoV Urbani: 0.7
  Binding of serum London to looped/cyclic peptides of protein X3 of SARS-CoV Urbani: 0.2
  Binding of serum SARS-green to linear peptides of protein X3 of SARS-CoV Urbani: 0.5
  Binding of serum SARS-green to looped/cyclic peptides of protein X3 of SARS-CoV Urbani: 0.2
  Binding of serum SARS-yellow to linear peptides of protein X3 of SARS-CoV Urbani: 1.1
  Binding of serum SARS-yellow to looped/cyclic peptides of protein X3 of SARS-CoV Urbani: 0.6

## FVLAAVYRINWVTGG
[1]
  Rabbit serum linear peptides: 0.5
  Rabbit serum looped peptides: 0.0
[2]
  Binding of Control Serum Blood-Bank to Looped peptides of the protein M of SARS-CoV Urbani: 0.6
  Binding of Control serum Blood-bank to linear peptides of the protein M of SARS-CoV Urbani: 0.8
  Binding of Control serum LUMC to linear peptides of the protein M of SARS-CoV Urbani: 0.5
  Binding of Control serum LUMC to looped peptides of the protein M of SARS-CoV Urbani: 0.8
[3]
  Binding of serum 1a to linear peptides of protein M of SARS-CoV Urbani: 0.9
  Binding of serum 1a to looped/cyclic peptides of protein M of SARS-CoV Urbani: 0.7
  Binding of serum 1b to linear peptides of protein M of SARS-CoV Urbani: 0.7
  Binding of serum 1b to looped/cyclic peptides of protein M of SARS-CoV Urbani: 0.6
  Binding of serum 2 to linear peptides of protein M of SARS-CoV Urbani: 0.6
  Binding of serum 2 to looped/cyclic peptides of protein M of SARS-CoV Urbani: 0.5
  Binding of serum 6 to linear peptides of protein M of SARS-CoV Urbani: 0.3
  Binding of serum 6 to looped/cyclic peptides of protein M of SARS-CoV Urbani: 0.8
  Binding of serum 37 to linear peptides of protein M of SARS-CoV Urbani: 0.8
  Binding of serum 37 to looped/cyclic peptides of protein M of SARS-CoV Urbani: 0.5
  Binding of serum 62 to linear peptides of protein M of SARS-CoV Urbani: 0.8
  Binding of serum 62 to looped/cyclic peptides of protein M of SARS-CoV Urbani: 0.6
  Binding of serum London to linear peptides of protein M of SARS-CoV Urbani: 0.3
  Binding of serum London to looped/cyclic peptides of protein M of SARS-CoV Urbani: 0.3
  Binding of serum SARS-green to linear peptides of protein M of SARS-CoV Urbani: 0.3
  Binding of serum SARS-green to looped/cyclic peptides of protein M of SARS-CoV Urbani: 0.3
  Binding of serum SARS-yellow to linear peptides of protein M of SARS-CoV Urbani: 0.1
  Binding of serum SARS-yellow to looped/cyclic peptides of protein M of SARS-CoV Urbani: 0.4

## GFAAYNRYRIGNYKL
[1]
  Rabbit serum linear peptides: 0.2
  Rabbit serum looped peptides: 0.5
[2]
  Binding of Control Serum Blood-Bank to Looped peptides of the protein M of SARS-CoV Urbani: 0.5
  Binding of Control serum Blood-bank to linear peptides of the protein M of SARS-CoV Urbani: 0.7
  Binding of Control serum LUMC to linear peptides of the protein M of SARS-CoV Urbani: 0.8
  Binding of Control serum LUMC to looped peptides of the protein M of SARS-CoV Urbani: 0.6
[3]
  Binding of serum 1a to linear peptides of protein M of SARS-CoV Urbani: 0.6
  Binding of serum 1a to looped/cyclic peptides of protein M of SARS-CoV Urbani: 0.7
  Binding of serum 1b to linear peptides of protein M of SARS-CoV Urbani: 0.4
  Binding of serum 1b to looped/cyclic peptides of protein M of SARS-CoV Urbani: 0.2
  Binding of serum 2 to linear peptides of protein M of SARS-CoV Urbani: 0.4
  Binding of serum 2 to looped/cyclic peptides of protein M of SARS-CoV Urbani: 0.6
  Binding of serum 6 to linear peptides of protein M of SARS-CoV Urbani: 0.8
  Binding of serum 6 to looped/cyclic peptides of protein M of SARS-CoV Urbani: 0.7
  Binding of serum 37 to linear peptides of protein M of SARS-CoV Urbani: 0.5
  Binding of serum 37 to looped/cyclic peptides of protein M of SARS-CoV Urbani: 0.6
  Binding of serum 62 to linear peptides of protein M of SARS-CoV Urbani: 0.5
  Binding of serum 62 to looped/cyclic peptides of protein M of SARS-CoV Urbani: 0.5
  Binding of serum London to linear peptides of protein M of SARS-CoV Urbani: 0.4
  Binding of serum London to looped/cyclic peptides of protein M of SARS-CoV Urbani: 0.2
  Binding of serum SARS-green to linear peptides of protein M of SARS-CoV Urbani: 0.3
  Binding of serum SARS-green to looped/cyclic peptides of protein M of SARS-CoV Urbani: 0.2
  Binding of serum SARS-yellow to linear peptides of protein M of SARS-CoV Urbani: 0.1
  Binding of serum SARS-yellow to looped/cyclic peptides of protein M of SARS-CoV Urbani: 0.5
